Data taken from paper PMC5007443, “TNIK inhibition abrogates colorectal cancer stemness” (Nature Communications, 2016).
Several values for one entry are separate records, joined by “and”; a condition that tells them apart may be missing. Equal values may be shown once.

What was measured:
CSK = CSK (Homo sapiens, UniProt P41240); experiment: Kinase selectivity profiling, c-Src tyrosine kinase; type: biochemical; settings: read-out: Percentage inhibition of CSK
Description: (§1) The selectivity of compounds against a panel of 50 human protein kinases was assessed using a non-radiometric assay.

HCT116 cells = experiment: Immunoblotting of CSC, mesenchymal and embryonal stem cell markers in HCT116 cells; type: cell-based, human; settings: HCT116, 3 μM, 48 or 72 h
Description: Protein samples were fractionated by SDS–PAGE and blotted onto Immobilon-P membranes (Millipore) as described previously. After incubation with the primary antibodies (listed in Supplementary Table 4) at 4 °C overnight, the blots were detected with the relevant horseradish peroxidase-conjugated anti-mouse or anti-rabbit IgG antibody (Cell Signaling Technology) and Western lighting ECL Pro (PerkinElmer). Signals were visualized with the LAS-4010 system (GE Healthcare). Uncropped versions of the blots in Figs 2e and 3f are shown in Supplementary Fig. 15.

Erk2 = Erk2 (Homo sapiens, UniProt P28482); experiment: Kinase selectivity profiling, Mitogen-activated protein kinase 1; type: biochemical; settings: read-out: Percentage inhibition of Erk2
Description: as §1

EGFR = EGFR (Homo sapiens, UniProt P00533); experiment: Kinase selectivity profiling, Epidermal growth factor receptor; type: biochemical; settings: read-out: Percentage inhibition of EGFR
Description: as §1

GSK3β = GSK3β (Homo sapiens, UniProt P49841); experiment: Kinase selectivity profiling, Glycogen synthase kinase 3β; type: biochemical; settings: read-out: Percentage inhibition of GSK3β
Description: as §1

AurA = AurA (Homo sapiens, UniProt O14965); experiment: Kinase selectivity profiling, Aurora kinase A; type: biochemical; settings: read-out: Percentage inhibition of AurA
Description: as §1

NEK2 = NEK2 (Homo sapiens, UniProt P51955); experiment: Kinase selectivity profiling, Never in mitosis gene A-related kinase 2; type: biochemical; settings: read-out: Percentage inhibition of NEK2
Description: as §1

[1] = test system: patient-derived colorectal cancer spheroids #6; experiment: Limiting dilution analysis of sphere reformation, spheroids #6; type: cell-based, human; settings: spheroids #6, 3-day Treatment
Description: Spheroids were gently dissociated into single cells with the use of StemPro Accutase (Thermo Fisher Scientific), and 1,000, 100, 10 or 1 viable cells were seeded into each well of a 96-well U-bottom PrimeSurface plate (Supplementary Figs 10b and 12). Experiments were performed in triplicate and repeated at least two times.

LCK = LCK (Homo sapiens, UniProt P06239); experiment: Kinase selectivity profiling, Lymphocyte-specific protein tyrosine kinase; type: biochemical; settings: read-out: Percentage inhibition of LCK
Description: as §1

PBK = PBK (Homo sapiens, UniProt Q96KB5); experiment: Kinase selectivity profiling, PDZ binding kinase; type: biochemical; settings: read-out: Percentage inhibition of PBK
Description: as §1

PKCα = PKCα (Homo sapiens, UniProt P17252); experiment: Kinase selectivity profiling, Protein kinase C-α; type: biochemical; settings: read-out: Percentage inhibition of PKCα
Description: as §1

ITK = ITK (Homo sapiens, UniProt Q08881); experiment: Kinase selectivity profiling, IL2-inducible T-cell kinase; type: biochemical; settings: read-out: Percentage inhibition of ITK
Description: as §1

p38α = p38α (Homo sapiens, UniProt Q16539); experiment: Kinase selectivity profiling, Mitogen-activated protein kinase 14; type: biochemical; settings: read-out: Percentage inhibition of p38α
Description: as §1

EPHA2 = EPHA2 (Homo sapiens, UniProt P29317); experiment: Kinase selectivity profiling, EPH receptor A2; type: biochemical; settings: read-out: Percentage inhibition of EPHA2
Description: as §1

DAPK1 = DAPK1 (Homo sapiens, UniProt P53355); experiment: Kinase selectivity profiling, Death-associated protein kinase 1; type: biochemical; settings: read-out: Percentage inhibition of DAPK1
Description: as §1

FGFR1 = FGFR1 (Homo sapiens, UniProt P11362); experiment: Kinase selectivity profiling, Fibroblast growth factor receptor 1; type: biochemical; settings: read-out: Percentage inhibition of FGFR1
Description: as §1

p70S6K = p70S6K (Homo sapiens, UniProt P23443); experiment: Kinase selectivity profiling, Ribosomal protein S6 kinase; type: biochemical; settings: read-out: Percentage inhibition of p70S6K
Description: as §1

KDR = KDR (Homo sapiens, UniProt P35968); experiment: Kinase selectivity profiling, Kinase insert domain receptor; type: biochemical; settings: read-out: Percentage inhibition of KDR
Description: as §1

PDGFRα = PDGFRα (Homo sapiens, UniProt P16234); experiment: Kinase selectivity profiling, Platelet-derived growth factor receptor α; type: biochemical; settings: 0.1 µM inhibitor, ATP at Km; for inhibition at 0.1 µM: read-out: Percentage inhibition of PDGFRα
Description: as §1

PIM1 = PIM1 (Homo sapiens, UniProt P11309); experiment: Kinase selectivity profiling, Pim-1 oncogene; type: biochemical; settings: read-out: Percentage inhibition of PIM1
Description: as §1

CDK2/CycA2 = CDK2/CycA2 (Homo sapiens, UniProt P24941); experiment: Kinase selectivity profiling, Cyclin-dependent kinase 2/cyclin A2; type: biochemical; settings: 0.1 µM inhibitor, ATP at Km
Description: as §1

TYRO3 = TYRO3 (Homo sapiens, UniProt Q06418); experiment: Kinase selectivity profiling, Tyro3 receptor tyrosine kinase; type: biochemical; settings: read-out: Percentage inhibition of TYRO3
Description: as §1

MST1 = MST1 (Homo sapiens, UniProt Q13043); experiment: Kinase selectivity profiling; type: biochemical; settings: read-out: Percentage inhibition of MST1
Description: as §1

PKD2 = PKD2 (Homo sapiens, UniProt Q9BZL6); experiment: Kinase selectivity profiling; type: biochemical; settings: read-out: Percentage inhibition of PKD2
Description: as §1

Spheroid #6 = experiment: ALDH activity of spheroid #6; type: cell-based, human; settings: spheroid #6, 1 μM, 48 hr
Description: Cells with ALDH activity were detected using an Aldefluor kit (Stem Cell Technologies) in accordance with the manufacturer's instructions. Briefly, cells were incubated in Aldefluor assay buffer containing ALDH substrate for 30 min at 37 °C. As a negative control, an aliquot of each sample was treated with 50 mM diethylaminobenzaldehyde (DEAB) to block ALDH activity. Cells were analysed with a Guava easy Cyte HT flow cytometer. Data analysis was performed using the Guava InCyte software. The analysis was performed in triplicate and repeated at least two times.

TRKA = TRKA (Homo sapiens, UniProt P04629); experiment: Kinase selectivity profiling, Tropomyosin receptor kinase A; type: biochemical; settings: 0.1 µM inhibitor, ATP at Km; for inhibition at 0.1 µM: read-out: Percentage inhibition of TRKA
Description: as §1

ROCK1 = ROCK1 (Homo sapiens, UniProt Q13464); experiment: Kinase selectivity profiling, Rho-associated, coiled-coil containing protein kinase 1; type: biochemical; settings: read-out: Percentage inhibition of ROCK1
Description: as §1

PDGFRα, sequence (P16234 24-1089): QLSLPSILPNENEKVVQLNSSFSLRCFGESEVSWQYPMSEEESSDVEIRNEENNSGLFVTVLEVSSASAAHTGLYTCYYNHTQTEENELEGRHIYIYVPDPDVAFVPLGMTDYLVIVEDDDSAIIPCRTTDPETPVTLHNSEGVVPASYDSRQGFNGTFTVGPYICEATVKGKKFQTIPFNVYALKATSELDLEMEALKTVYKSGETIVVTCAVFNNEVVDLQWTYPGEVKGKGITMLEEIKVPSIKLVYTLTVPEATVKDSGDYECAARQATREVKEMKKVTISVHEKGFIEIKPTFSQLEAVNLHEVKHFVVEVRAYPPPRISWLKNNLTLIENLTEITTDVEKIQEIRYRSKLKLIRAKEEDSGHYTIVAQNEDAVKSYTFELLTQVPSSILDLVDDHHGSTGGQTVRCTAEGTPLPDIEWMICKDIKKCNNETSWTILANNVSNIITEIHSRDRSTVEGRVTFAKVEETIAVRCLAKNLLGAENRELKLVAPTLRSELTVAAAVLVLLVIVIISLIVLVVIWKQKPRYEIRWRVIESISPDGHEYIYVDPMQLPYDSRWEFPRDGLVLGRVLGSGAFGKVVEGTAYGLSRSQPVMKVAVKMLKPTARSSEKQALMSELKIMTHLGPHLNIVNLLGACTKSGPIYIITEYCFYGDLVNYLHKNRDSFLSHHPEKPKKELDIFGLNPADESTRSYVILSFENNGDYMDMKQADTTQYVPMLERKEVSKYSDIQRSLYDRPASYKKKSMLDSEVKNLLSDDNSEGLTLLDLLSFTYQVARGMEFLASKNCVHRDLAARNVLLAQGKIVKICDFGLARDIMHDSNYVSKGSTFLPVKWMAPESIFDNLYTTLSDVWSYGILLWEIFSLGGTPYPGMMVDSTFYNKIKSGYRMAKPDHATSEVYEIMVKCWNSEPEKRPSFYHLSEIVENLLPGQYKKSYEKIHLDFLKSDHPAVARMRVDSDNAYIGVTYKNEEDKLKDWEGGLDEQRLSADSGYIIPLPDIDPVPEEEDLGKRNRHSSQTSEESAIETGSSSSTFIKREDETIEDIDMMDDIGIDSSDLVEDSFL
TRKA, sequence (P04629 33-796): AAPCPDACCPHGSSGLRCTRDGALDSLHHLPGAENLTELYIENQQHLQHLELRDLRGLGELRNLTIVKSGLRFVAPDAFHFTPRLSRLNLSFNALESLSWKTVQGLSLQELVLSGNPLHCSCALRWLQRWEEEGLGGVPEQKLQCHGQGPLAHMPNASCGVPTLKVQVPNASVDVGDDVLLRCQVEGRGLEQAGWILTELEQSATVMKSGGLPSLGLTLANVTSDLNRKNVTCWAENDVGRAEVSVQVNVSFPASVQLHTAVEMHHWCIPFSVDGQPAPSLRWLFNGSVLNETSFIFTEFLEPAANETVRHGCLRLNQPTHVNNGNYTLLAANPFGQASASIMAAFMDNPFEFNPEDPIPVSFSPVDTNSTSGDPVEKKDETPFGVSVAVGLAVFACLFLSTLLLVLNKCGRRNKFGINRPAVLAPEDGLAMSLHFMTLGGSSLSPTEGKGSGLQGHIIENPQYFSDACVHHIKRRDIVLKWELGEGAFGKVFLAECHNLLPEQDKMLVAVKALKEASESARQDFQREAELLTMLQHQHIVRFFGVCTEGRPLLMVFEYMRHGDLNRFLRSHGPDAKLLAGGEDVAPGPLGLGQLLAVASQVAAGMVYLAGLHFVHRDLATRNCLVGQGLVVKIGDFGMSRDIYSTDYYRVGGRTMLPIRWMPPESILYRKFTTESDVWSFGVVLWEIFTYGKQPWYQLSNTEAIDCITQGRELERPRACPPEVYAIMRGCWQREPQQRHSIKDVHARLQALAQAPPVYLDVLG
ITK, sequence (Q08881 whole entry): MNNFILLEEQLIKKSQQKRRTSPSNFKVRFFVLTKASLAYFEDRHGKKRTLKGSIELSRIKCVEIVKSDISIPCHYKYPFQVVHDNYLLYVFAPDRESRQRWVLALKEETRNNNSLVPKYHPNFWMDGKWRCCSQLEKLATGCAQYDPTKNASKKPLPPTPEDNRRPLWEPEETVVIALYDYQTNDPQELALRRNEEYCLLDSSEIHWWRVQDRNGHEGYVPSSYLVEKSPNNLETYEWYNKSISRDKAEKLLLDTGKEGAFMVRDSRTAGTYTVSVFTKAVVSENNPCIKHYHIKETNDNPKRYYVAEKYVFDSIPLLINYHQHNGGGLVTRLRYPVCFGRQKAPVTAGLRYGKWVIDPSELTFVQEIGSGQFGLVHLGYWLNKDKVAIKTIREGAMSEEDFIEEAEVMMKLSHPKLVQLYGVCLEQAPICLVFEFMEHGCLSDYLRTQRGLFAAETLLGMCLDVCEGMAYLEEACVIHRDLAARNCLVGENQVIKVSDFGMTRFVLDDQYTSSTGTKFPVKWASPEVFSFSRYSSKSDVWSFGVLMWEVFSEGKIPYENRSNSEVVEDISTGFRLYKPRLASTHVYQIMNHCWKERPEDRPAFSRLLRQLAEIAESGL
p38α, sequence (Q16539 whole entry): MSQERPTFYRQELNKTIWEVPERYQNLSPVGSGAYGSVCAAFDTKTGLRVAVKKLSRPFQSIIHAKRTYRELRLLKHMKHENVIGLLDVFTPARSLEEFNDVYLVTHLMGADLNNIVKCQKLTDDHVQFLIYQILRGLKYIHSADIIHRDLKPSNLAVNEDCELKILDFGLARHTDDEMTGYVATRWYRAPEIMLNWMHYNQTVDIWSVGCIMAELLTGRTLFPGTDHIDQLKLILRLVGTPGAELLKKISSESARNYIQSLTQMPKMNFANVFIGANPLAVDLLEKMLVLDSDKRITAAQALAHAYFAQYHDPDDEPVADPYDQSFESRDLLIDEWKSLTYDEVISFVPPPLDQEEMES
NEK2, sequence (P51955 whole entry): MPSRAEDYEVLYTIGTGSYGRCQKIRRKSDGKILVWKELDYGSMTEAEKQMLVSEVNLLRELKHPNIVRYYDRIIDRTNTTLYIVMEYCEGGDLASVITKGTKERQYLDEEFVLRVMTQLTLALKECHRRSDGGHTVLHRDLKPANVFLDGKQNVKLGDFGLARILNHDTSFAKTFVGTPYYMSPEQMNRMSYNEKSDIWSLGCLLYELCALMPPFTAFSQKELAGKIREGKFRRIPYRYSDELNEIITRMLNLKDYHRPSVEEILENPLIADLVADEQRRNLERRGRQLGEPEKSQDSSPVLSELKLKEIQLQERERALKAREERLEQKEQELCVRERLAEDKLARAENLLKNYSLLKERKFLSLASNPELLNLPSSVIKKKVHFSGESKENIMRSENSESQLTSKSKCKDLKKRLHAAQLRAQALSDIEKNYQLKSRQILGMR
MST1, sequence (Q13043 whole entry): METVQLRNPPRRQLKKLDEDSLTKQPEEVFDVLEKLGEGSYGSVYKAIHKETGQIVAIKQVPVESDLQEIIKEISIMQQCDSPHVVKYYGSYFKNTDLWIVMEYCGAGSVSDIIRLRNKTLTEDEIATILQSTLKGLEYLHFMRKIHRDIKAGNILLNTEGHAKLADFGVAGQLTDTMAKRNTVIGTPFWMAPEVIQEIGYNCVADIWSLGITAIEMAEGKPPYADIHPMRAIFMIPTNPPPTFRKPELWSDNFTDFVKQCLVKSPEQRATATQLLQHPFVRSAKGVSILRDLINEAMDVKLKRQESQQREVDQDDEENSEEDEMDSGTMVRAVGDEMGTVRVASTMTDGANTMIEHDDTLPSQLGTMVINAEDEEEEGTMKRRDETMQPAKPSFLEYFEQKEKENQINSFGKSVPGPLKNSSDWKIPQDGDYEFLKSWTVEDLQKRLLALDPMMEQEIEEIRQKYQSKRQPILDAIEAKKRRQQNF
Erk2, sequence (P28482 whole entry): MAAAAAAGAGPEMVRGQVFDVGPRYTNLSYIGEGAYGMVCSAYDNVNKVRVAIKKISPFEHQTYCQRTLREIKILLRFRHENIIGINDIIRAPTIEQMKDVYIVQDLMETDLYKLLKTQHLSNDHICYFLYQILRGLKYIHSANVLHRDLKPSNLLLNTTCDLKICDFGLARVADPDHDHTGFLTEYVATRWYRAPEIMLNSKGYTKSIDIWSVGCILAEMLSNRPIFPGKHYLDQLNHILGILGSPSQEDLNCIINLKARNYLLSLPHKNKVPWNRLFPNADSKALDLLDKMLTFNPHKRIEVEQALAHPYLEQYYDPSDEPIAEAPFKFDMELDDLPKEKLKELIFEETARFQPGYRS
LCK, sequence (P06239 whole entry): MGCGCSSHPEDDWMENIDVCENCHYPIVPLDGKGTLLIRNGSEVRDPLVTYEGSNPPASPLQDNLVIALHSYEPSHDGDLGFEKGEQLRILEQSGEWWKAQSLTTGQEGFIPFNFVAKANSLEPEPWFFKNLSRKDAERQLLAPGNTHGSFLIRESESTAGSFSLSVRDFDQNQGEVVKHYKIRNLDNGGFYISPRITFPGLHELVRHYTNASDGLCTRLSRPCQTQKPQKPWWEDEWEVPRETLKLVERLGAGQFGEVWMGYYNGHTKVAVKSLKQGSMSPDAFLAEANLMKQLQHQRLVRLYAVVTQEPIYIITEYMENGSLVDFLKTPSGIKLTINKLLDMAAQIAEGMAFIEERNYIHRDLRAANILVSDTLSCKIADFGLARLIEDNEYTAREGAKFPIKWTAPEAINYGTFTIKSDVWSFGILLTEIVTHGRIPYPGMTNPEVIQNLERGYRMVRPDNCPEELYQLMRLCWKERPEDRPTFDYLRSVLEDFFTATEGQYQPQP
PBK, sequence (Q96KB5 whole entry): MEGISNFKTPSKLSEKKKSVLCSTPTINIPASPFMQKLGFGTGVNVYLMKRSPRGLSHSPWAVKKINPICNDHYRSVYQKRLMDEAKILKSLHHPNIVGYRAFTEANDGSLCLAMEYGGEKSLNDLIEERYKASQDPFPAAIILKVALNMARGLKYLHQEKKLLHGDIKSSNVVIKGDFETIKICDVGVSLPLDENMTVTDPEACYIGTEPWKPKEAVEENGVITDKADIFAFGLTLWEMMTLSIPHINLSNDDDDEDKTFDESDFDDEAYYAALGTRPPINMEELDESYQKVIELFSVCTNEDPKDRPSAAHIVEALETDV

O[C@H]1CC[C@@H](Oc2cccc3cnc(Nc4ccc5nc[nH]c5c4)nc23)CC1 [NCB-0846, cis-4-(2-(3H-benzo[d]imidazol-5-ylamino)quinazolin-8-yloxy)cyclohexanol]
inhibition at 0.1 µM (CSK): -1%
downregulation of expression of putative colorectal CSC markers CD44, CD133, ALDH1 (HCT116 cells): downregulated
embryonal stem cell markers (Oct4, Nanog and Sox2) (HCT116 cells): not affected
expression of mesenchymal markers (Slug, Snail, Twist, Smad2 and Vimentin) (HCT116 cells): reduced
inhibition at 0.1 µM (Erk2): 0.7%
inhibition at 0.1 µM (EGFR): 4.8%
inhibition at 0.1 µM (GSK3β): 27.7%
inhibition at 0.1 µM (AurA): 41.4%
inhibition at 0.1 µM (NEK2): -3.5%
Sphere-containing wells/total wells ([1]; 0.1 μM, 1 cell per well): 12/96
Sphere-containing wells/total wells ([1]; 0.1 μM, 10 cells per well): 77/96
Sphere-containing wells/total wells ([1]; 0.1 μM, 100 cells per well): 96/96
Sphere-containing wells/total wells ([1]; 0.1 μM, 1000 cells per well): 96/96
Sphere-containing wells/total wells ([1]; 0.3 μM, 1 cell per well): 3/96
Sphere-containing wells/total wells ([1]; 0.3 μM, 10 cells per well): 72/96
Sphere-containing wells/total wells ([1]; 0.3 μM, 100 cells per well): 96/96
Sphere-containing wells/total wells ([1]; 0.3 μM, 1000 cells per well): 96/96
Sphere-containing wells/total wells ([1]; 1.0 μM, 1 cell per well): 2/96
Sphere-containing wells/total wells ([1]; 1.0 μM, 10 cells per well): 49/96
Sphere-containing wells/total wells ([1]; 1.0 μM, 100 cells per well): 94/96
Sphere-containing wells/total wells ([1]; 1.0 μM, 1000 cells per well): 96/96
inhibition at 0.1 µM (LCK): 23.6%
inhibition at 0.1 µM (PBK): -3.9%
inhibition at 0.1 µM (PKCα): -0.9%
inhibition at 0.1 µM (ITK): 10%
inhibition at 0.1 µM (p38α): -3.5%
inhibition at 0.1 µM (EPHA2): 13.6%
inhibition at 0.1 µM (DAPK1): 3.7%
inhibition at 0.1 µM (FGFR1): 32.5%
inhibition at 0.1 µM (p70S6K): 11%
inhibition at 0.1 µM (KDR): 71.1%
Percentage inhibition of PDGFRα (PDGFRα; 0.1 µM): 89.0%
inhibition at 0.1 µM (PDGFRα): > 80%
inhibition at 0.1 µM (PIM1): -3.1%
Percentage inhibition of CDK2/CycA2 (CDK2/CycA2; 0.1 µM): > 80% and 101.1%
inhibition at 0.1 µM (TYRO3): 48.9%
inhibition at 0.1 µM (MST1): 57.8%
inhibition at 0.1 µM (PKD2): 18.8%
percentage of cells with ALDH activity, - DEAB (Spheroid #6): 19.43%
percentage of cells with ALDH activity, + DEAB (Spheroid #6): 1.01%
Percentage inhibition of TRKA (TRKA; 0.1 µM): 89.1%
inhibition at 0.1 µM (TRKA): > 80%
inhibition at 0.1 µM (ROCK1): 20.1%

O[C@H]1CC[C@H](Oc2cccc3cnc(Nc4ccc5nc[nH]c5c4)nc23)CC1 [NCB-0970]
inhibition at 0.1 µM (CSK): -4%
downregulation of expression of putative colorectal CSC markers CD44, CD133, ALDH1 (HCT116 cells): not
inhibition at 0.1 µM (Erk2): -2.1%
inhibition at 0.1 µM (EGFR): -16.8%
inhibition at 0.1 µM (GSK3β): 13.5%
inhibition at 0.1 µM (AurA): 36.5%
inhibition at 0.1 µM (NEK2): -4.5%
Sphere-containing wells/total wells ([1]; 0.1 μM, 1 cell per well): 8/96
Sphere-containing wells/total wells ([1]; 0.1 μM, 10 cells per well): 83/96
Sphere-containing wells/total wells ([1]; 0.1 μM, 100 cells per well): 96/96
Sphere-containing wells/total wells ([1]; 0.1 μM, 1000 cells per well): 96/96
Sphere-containing wells/total wells ([1]; 0.3 μM, 1 cell per well): 10/96
Sphere-containing wells/total wells ([1]; 0.3 μM, 10 cells per well): 87/96
Sphere-containing wells/total wells ([1]; 0.3 μM, 100 cells per well): 96/96
Sphere-containing wells/total wells ([1]; 0.3 μM, 1000 cells per well): 96/96
Sphere-initiating cell frequency, Estimate ([1]; 1.0 μM): 1/15
Sphere-containing wells/total wells ([1]; 1.0 μM, 1 cell per well): 1/96
Sphere-containing wells/total wells ([1]; 1.0 μM, 10 cells per well): 50/96
Sphere-containing wells/total wells ([1]; 1.0 μM, 100 cells per well): 96/96
Sphere-containing wells/total wells ([1]; 1.0 μM, 1000 cells per well): 96/96
inhibition at 0.1 µM (LCK): 6.8%
inhibition at 0.1 µM (PBK): -5.8%
inhibition at 0.1 µM (PKCα): 1.4%
inhibition at 0.1 µM (ITK): 9%
inhibition at 0.1 µM (p38α): -2.8%
inhibition at 0.1 µM (EPHA2): 8.7%
inhibition at 0.1 µM (DAPK1): 4.7%
inhibition at 0.1 µM (FGFR1): 14.4%
inhibition at 0.1 µM (p70S6K): 11.4%
inhibition at 0.1 µM (KDR): 43.7%
inhibition at 0.1 µM (PDGFRα): 45.6%
inhibition at 0.1 µM (PIM1): -5%
inhibition at 0.1 µM (CDK2/CycA2; read-out: Percentage inhibition of CDK2/CycA2): 93%
inhibition at 0.1 µM (TYRO3): 23.9%
inhibition at 0.1 µM (MST1): 14.3%
inhibition at 0.1 µM (PKD2): 1%
percentage of cells with ALDH activity, - DEAB (Spheroid #6): 44.32%
percentage of cells with ALDH activity, + DEAB (Spheroid #6): 2.30%
inhibition at 0.1 µM (TRKA): 81.6%
inhibition at 0.1 µM (ROCK1): 9.7%
